Read-outs that look alike come from different tables or passages of the source.
Key:
Type in all cases: cell-based
[1] = tested on: SCC114 line (oral squamous carcinoma cell line); test: Cell proliferation (ATPLite) on SCC114 line; settings: read 72 hours after addition
Experimental: (§1) The lines N1E115 (ATCC, CRL2263), MDA-MB-231 (ATCC, HTB26) and HSC-1 (Health Science Research Resources Bank, JCRB1015) were cultured in DMEM medium (Dulbecco's Modified Eagle Medium) supplemented with 2 mM of L-Glutamine (Sigma, G7513) and 10% foetal calf serum (Hyclone, SH30109.03) or 20% for the HSC-1 cells. The HCC-1937 (ATCC, CRL2336) and A549 (ATCC, CCL185) lines were cultured in RPMI medium (Roswell Park Memorial Institute Medium) supplemented with 10% foetal calf serum and 2 mM of L-Glutamine. Finally, the SCC114 (DSMZ, ACC662) line was cultured in MEM medium (Minimum Essential Medium Eagle) supplemented with 10% foetal calf serum and 2 mM of L-Glutamine. Initially, in 96-well plates (Perkin Elmer, 6005668), the cells were seeded in their respective culture media with 750 cells per well for N1E115; 1000 cells per well for SCC114 and A549; 2000 cells per well for HCC-1937 and HSC-1; 2500 cells per well for MDA-MB-231. Cascade dilution of each compound was performed in dimethylsulfoxide (DMSO) (Sigma, D8418) from 10 mM stock solutions in 100% DMSO. Each of the dilutions was added to the cells 24 hours after seeding. Under these conditions the final solvent concentration was 0.1% DMSO. Reading of cell proliferation was conducted 72 hours after addition of products with the ATPLite kit (Perkin Elmer, 6016947) and following the manufacturer's directions except in the case of the HCC-1937 line for which this reading was carried out 48 hours after treatment. Analysis of proliferation results was performed by comparing with conditions in which solely the vehicle was added to the cells. The dose-response curves obtained were analysed using Prism 4.03 software (GraphPad Software Inc.) to determine the concentration of each compound allowing 50% inhibition of cell proliferation (IC50).
(§2) As examples, the cytotoxic properties of some compounds of the invention evaluated on the lines A549 (lung cancer cell line), MDA-MB-231 line (mammary adenocarcinoma cell line), N1E115 (mouse brain neuroblastoma cell line), HCC-1937 line (primary ductam breast carcinoma cell line), HSC-1 (cutaneous squamous carcinoma cell line) and SCC114 line (oral squamous carcinoma cell line) are reported in Table 1, as compared with griseofulvin used as control product. The concentration values are expressed in micromolar units (μM).

[2] = tested on: MDA-MB-231 line (mammary adenocarcinoma cell line); test: Cell proliferation (ATPLite) on MDA-MB-231 line; settings: read 72 hours after addition
Experimental: as §1, §2

[3] = tested on: A549 (lung cancer cell line); test: Cell proliferation (ATPLite) on A549 line; settings: read 72 hours after addition
Experimental: as §1, §2

[4] = tested on: N1E115 (mouse brain neuroblastoma cell line); test: Cell proliferation (ATPLite) on N1E115 line; settings: read 72 hours after addition
Experimental: as §1, §2

[5] = tested on: HCC-1937 line (primary ductam breast carcinoma cell line); test: Cell proliferation (ATPLite) on HCC-1937 line; settings: read 48 hours after treatment
Experimental: as §1, §2

[6] = tested on: HSC-1 (cutaneous squamous carcinoma cell line); test: Cell proliferation (ATPLite) on HSC-1 line; settings: 50% inhibition of cell proliferation, read 72 hours after addition
Experimental: as §1, §2

[7] = 50% inhibition of cell proliferation
[8] = 50% inhibition of cell proliferation, read-out: IC50 (μM) N1E-115
[9] = 50% inhibition of cell proliferation, read-out: IC50 (μM) HCC1937
[10] = SCC114, 50% inhibition of cell proliferation
[11] = Homo sapiens, MDA-MB-231, 50% inhibition of cell proliferation
[12] = Homo sapiens, A549, 50% inhibition of cell proliferation
[13] = Mus musculus, N1E-115, 50% inhibition of cell proliferation
[14] = Homo sapiens, HCC1937, 50% inhibition of cell proliferation

IC50 [1, 7] [µM]	IC50 [2, 7] [µM]	IC50 [3, 7] [µM]	IC50 [4, 8] [µM]	IC50 [5, 9] [µM]	IC50 [6] [µM]	IC50 [1, 10] [µM]	IC50 [2, 11] [µM]	IC50 [3, 12] [µM]	IC50 [4, 13] [µM]	IC50 [5, 14] [µM]	Compound
0.52	0.45	0.25	0.21	> 10	6	–	–	–	–	–	COc1cc(OC)c2c(c1Cl)O[C@]1(C2=O)C2=C(C[C@H](c3ccccc3)O2)C(=O)C[C@H]1C [compound 3, (2R,2′S,6R)-7′-chloro-4′,6′-dimethoxy-6-methyl-2-phenyl-5,6-dihydro-2H,3′H-2,7′-spirobi[benzofuran]-3′,4(3H)-dione]
0.25	0.54	0.25	1	0.43	0.32	–	–	–	–	–	COc1cc(OC)c2c(c1Cl)O[C@@]1(C=C([S+]([O-])c3ccccc3)C(=O)C[C@H]1C)C2=O (stereo partly drawn) [compound 95]
0.385	2	1.5	3	1.4	1.4	–	–	–	–	–	COc1cc(OC)c2c(c1Cl)O[C@]1(C2=O)C(S(=O)(=O)Cc2ccccc2)=CC(=O)C[C@H]1C [compound 145, (1′R,6′R)-2′-(benzylsulfonyl)-7-chloro-4,6-dimethoxy-6′-methyl-3H-spiro[benzofuran-2,1′-cyclohex[2]ene]-3,4′-dione]
–	–	–	–	–	0.72	0.23	0.34	0.24	0.21	> 10	COC(=O)C1=C[C@H](c2ccccc2)C2=C(C[C@@H](C)[C@]3(Oc4c(Cl)c(OC)cc(OC)c4C3=O)C2=O)N1 [compound 149, (2S,4′R,7′R)-methyl 7-chloro-4,6-dimethoxy-7′-methyl-3,5′-dioxo-4′-phenyl-4′,5′,7′,8′-tetrahydro-1′H,3H-spiro[benzofuran-2,6′-quinoline]-2′-carboxylate]
–	–	–	–	–	10	0.71	1.6	0.48	0.62	> 10	COC(=O)c1cc(-c2ccccc2)c2c(n1)C[C@@H](C)[C@]1(Oc3c(Cl)c(OC)cc(OC)c3C1=O)C2=O [compound 152, (2S,7′R)-methyl 7-chloro-4,6-dimethoxy-7′-methyl-3,5′-dioxo-4′-phenyl-7′,8′-dihydro-3H,5′H-spiro[benzofuran-2,6′-quinoline]-2′-carboxylate]
0.33	0.63	0.36	0.73	> 10	1.3	–	–	–	–	–	COc1cc(OC)c2c(c1Cl)O[C@]1(C2=O)C2=C(C[C@@H](c3ccccc3)O2)/C(=N/O)C[C@H]1C [compound 217, (2′S,6R,E)-7′-chloro-4-(hydroxyimino)-4′,6′-dimethoxy-6-methyl-2-phenyl-3,4,5,6-tetrahydro-2H,3′H-2,7′-spirobi[benzofuran]-3′-one]
–	–	–	–	–	0.88	0.42	0.34	0.55	0.26	> 10	COc1cc(OC)c2c(c1Cl)O[C@]1(C2=O)C(O)c2ccc(C)nc2C[C@H]1C (stereo partly drawn) [compound 249, (2S,7′R)-7-chloro-5′-hydroxy-4,6-dimethoxy-2′,7′-dimethyl-7′,8′-dihydro-3H,5′H-spiro[benzofuran-2,6′-quinolin]-3-one]
–	–	–	–	–	1.9	0.54	0.35	1.4	1.4	> 10	CCc1ccc2c(n1)C[C@@H](C)[C@]1(Oc3c(Cl)c(OC)cc(OC)c3C1=O)C2O (stereo partly drawn) [compound 250, (2 S,7′R)-7-chloro-2′-ethyl-5′-hydroxy-4,6-dimethoxy-7′-methyl-7′,8′-dihydro-3H,5′H-spiro[benzofuran-2,6′-quinolin]-3-one]
–	–	–	–	–	0.52	0.32	0.38	0.25	0.2	> 10	COC(=O)c1cc(-c2ccccc2)c2c(n1)C[C@@H](C)[C@]1(Oc3c(Cl)c(OC)cc(OC)c3C1=O)[C@H]2O [compound 252, (2S,5′S,7′R)-methyl 7-chloro-5′-hydroxy-4,6-dimethoxy-7′-methyl-3-oxo-4′-phenyl-7′,8′-dihydro-3H,5′H-spiro[benzofuran-2,6′-quinoline]-2′-carboxylate]

Source: patent publication US9416143B2, “Griseofulvin derivatives” (PIERRE FABRE MEDICAMENT, priority 2012, dated 2016)
